{
  "source": "patent US20090317419A1",
  "about": "“Tetramers” (Duke University, priority 2008, published 2009)",
  "key": {"[1]": {"system": "B Cell Receptor of purified naïve BALB/c splenic B cells", "details": "10 μg/ml anti-Ig, 37° C., by 15 min", "method": "B cell purification, BCR internalization assay, and microscopy of BCR cap formation. Splenic B cells were purified by negative depletion of CD43-expressing non B cells with anti-mouse CD43 MACS beads (Miltenyi Biotechnology) resulting in fractions >90% B cells.\nFor analysis of BCR internalization by flow cytometry, purified B cells were pre-incubated on ice for 30 min with either a 95:5 unlabeled/R-PE-labeled mixture of 10 μg/ml goat anti-mouse-IgM+IgG (H+L) F(ab)2 fragments (Jackson ImmunoResearch laboratories). To remove excess reagent, cells were then washed, resuspended in DMEM 10% FCS, and stimulated by warming to 37° C. (or at 4° C. as a control) for the indicated time points. […] Percent internalization for tetramers was calculated on gp41 MPER+B220+ subsets (the gp41 MPER gate set based on the FMO control) by the formula [% gp41 MPER (To)−% gp41 MPER (Tn)]/% Sp62 (To)×100. In other experiments, cells were pre-incubated with either 5 mg/ml mannan, 125 mM α-methyl-mannopyranoside (Sigma-Aldrich), or 10 μg/ml unlabeled goat anti-mouse-IgM+IgG (H+L) F(ab)2 fragments, prior to staining with APC-labeled tetramers."}, "B220+ BALB/c splenocytes": {"system": "B220+ BALB/c splenocytes", "details": "pre-incubation with 10-fold molar excess unlabeled tetramer, 30 min on ice", "procedure": "(§1) Staining was conducted at 4° C. in several sequential steps in FACS staining buffer (1×PBS with 2% FCS, 0.1% NaN3), washing twice between steps. First, cells were incubated with v-amine live/dead dye for 15 min. Next, cells were stained with APC-labeled tetramers for 30 min. Where applicable, this was preceded by addition of cold tetramer at 10 fold molar excess for 1 h. Finally, cells were stained with Fc block for 30 min, followed by incubation with combinations of primary antibody cocktails for 30 min, and secondary staining with SA-Texas Red for 30 min."}, "[2]": {"system": "mAb 13H11 (non-neutralizing anti-gp41 MPER)", "details": "SPR, mAb 13H11 captured", "procedure": "(§2) Surface Plasmon Resonance (SPR) measurements of tetramer binding to peptide epitopes. Tetramer binding assays were carried out on a BIAcore 3000 (BIAcore/GE Healthcare, Piscataway, N.J.) instrument using mAbs against each specific B cell epitope.\n(§3) Each mAb (about 1000 RU) was first captured on anti-human Fc mAb (Pierce, Rockford, Ill.) immobilized on a CM5 sensor chip. Approximately 3000 RU of anti-human Fc mAb was covalently coupled to each flow cell of the sensor chip as described before (Alam et al, Journal of Immunology 178:4424-4435 (2007)). Each B cell tetramer was injected over its epitope specific mAb or a control surface immobilized with irrelevant mAb. For each tetramer binding curve, non-specific binding signals obtained from the control surface were subtracted. The binding assay was monitored at 25° C. and using PBS, pH 7.4, as the running buffer. The BIAevaluation 3.0 software (BIAcore/GE Healthcare, Piscataway, N.J.) was used for SPR binding data analyses."}, "[3]": {"system": "mAb 2F5 (neutralizing anti-gp41 MPER)", "details": "SPR, mAb 2F5 captured", "procedure": "as §2, §3"}, "[4]": {"system": "B cell subsets from naive C57BL/6 mice", "procedure": "(§4) Cell isolation, serum collection, and PBMC isolations. Heparinized or non-heparanized blood was collected sub-mandibularly 10 days after immunizations. For preparation of peripheral blood lymphocytes for B cell tetramer analysis, PBMC were isolated from blood collected in heparinized tubes (0.2 ml) using Lympholyte M (Cederlane). For Luminex and ELISA assays, sera was isolated from non-heparanized blood and stored at −20° C. until use. Spleen, bone marrow (BM), and peritoneal cavity (PerC) cells were also collected. For most immunizations, tissues were harvested after the 4th boost, except for kinetic studies, in which tissues from mice were harvested after 1, 3 or 7 days after a single immunization. For BM preparations, femora and tibiae were removed, aspirated with tissue medium using 23 gauge needles, filtered with 70 μm cell strainers (BD labware), and RBC-depleted using Tris-buffered ammonium chloride lysis. For splenocyte preparation, spleens were harvested and dissociated into single-cell suspensions either by passage through 70 μm cell strainers in tissue medium or by using frosted glass slides, and blood erythrocytes were depleted with ammonium chloride lysis. For isolation of peritoneal cells, peritoneal cavities of sacrificed mice were lavaged by injection with 10 ml of PBS, followed by gentle massage of the abdomen, and withdrawal of the peritoneal exudates. BM, splenic, and peritoneal single cell suspensions were centrifuged at 1500 rpm for 5 min and resuspended in 5, 10, and 1 ml of tissue media, respectively, for cell counts and immunofluorescence staining. Cell counts were performed in duplicate on a Coulter ZI Dual Threshold Cell Counter (Coulter).\n(§5) Antibodies and flow cytometry. Immunofluorescent staining of single cell suspensions (≧2×10^6) was conducted using pre-mixed combinations of fluorochrome-labeled antibodies and APC-conjugated B cell tetramers at empirically-determined optimal concentrations. All antibodies were from BD unless otherwise stated. […] Other reagents included biotinylated antibodies against dump channel markers: Thy1 (Ox7; Abcam), F4/80 (BM8; Abcam), CD11c (clone HL3), Gr-1 (clone RB6-8C5), TER-119, and NK-1.1 (clone PK136), secondary staining SA-Texas Red conjugate; v-amine live/dead violet dye (Molecular Probes), and Fc block (anti-CD16/32; clone 2.4G2).\nas §1\n(§6) Data were acquired using an LSRII flow cytometer and Cell Quest software (BD Immunocytometry systems). A minimum of 250000 events were acquired per sample. FACS Analysis was performed using FlowJo software (Tree Star). For analysis, single cells were positively gated based on their forward scatter height vs. forward scatter area and side scatter height vs. side scatter area profiles, lymphocytes were then positively gated based on their forward and side scatter profile (live lymphocyte gate), residual dead cells were excluded with negative gating on v-amine live/dead dye, and all irrelevant non-B cells were excluded with negative gating on dump markers Thy1, F4/80, CD11c, Gr-1, TER-119, and NK-1.1.\nTo examine if gp41 2F5 MPER epitope reactivity across B cell subsets mapped similarly on the IgH^b allotype, reactivity to gp41 2F5 MPER tetramers was measured by measuring the percentage of APC-labeled gp41 2F5 MPER tetramer-reactive cells in C57BL/6 bone marrow, splenic, and peritoneal B cell subsets (Table 10)."}, "[5]": {"system": "total naïve splenic C57BL/6 B cells", "details": "C57BL/6, APC-labeled tetramer", "procedure": "as §4, §5, §1, §6"}, "[6]": {"system": "total naïve splenic BALB/c B cells", "details": "APC-labeled tetramer", "procedure": "as §4, §5, §1, §6"}, "[7]": {"system": "naïve splenic B cells, BALB/c congenic strain bearing the IgH^b allotype", "procedure": "(§7) Mice. Female C57BL/6, BALB/c, B6Igh^a, and CB17 (BALBc Igh^b) inbred mouse strains (8-12 weeks of age) were purchased from Charles River Laboratories. All mice were housed in the Duke University Animal Facility in a pathogen-free environment with 12 hour light/dark cycles at 20-25° C. under AALAC guidelines and in accordance with all Institutional Animal Care and Use Committee and Duke University Institutional Biosafety Committee-approved animal protocols.\nas §5\n(§8) Staining was conducted at 4° C. in several sequential steps in FACS staining buffer (1×PBS with 2% FCS, 0.1% NaN3), washing twice between steps. First, cells were incubated with v-amine live/dead dye for 15 min. Next, cells were stained with APC-labeled tetramers for 30 min. […]"}, "[8]": {"system": "naïve splenic B cells, C57BL/6 congenic strain bearing the IgH^a allotype", "procedure": "as §7, §5, §8"}},
  "note": "Read-outs that look alike come from different tables or passages of the source. Marks after values point to notes of the source that are not given here. Ends that are not written are not given here. * marks the point of attachment. Biotin = O=C1N[C@H]2[C@H](CS[C@H]2CCCCC(=O)*)N1",
  "data": [
    {"substance": "Biotin-GGGQQEKNEQELLELDKWASLWN [gp41 MPER tetramer]", "values": [
      {"measurement": "tetramer downmodulation", "setting": "[1]", "result": "> 80", "unit": "%"},
      {"measurement": "inhibition of binding of APC-labeled gp41 MPER-tetramer", "setting": "B220+ BALB/c splenocytes", "result": "> 90", "unit": "%"},
      {"measurement": "koff", "setting": "[2]", "result": 8.1, "unit": "s^−1 × 10^−3"},
      {"measurement": "kon", "setting": "[2]", "result": 206, "unit": "M^−1s^−1 × 10^3"},
      {"measurement": "koff", "setting": "[3]", "result": 0.37, "unit": "s^−1 × 10^−3"},
      {"measurement": "kon", "setting": "[3]", "result": 174, "unit": "M^−1s^−1 × 10^3"},
      {"measurement": "% of subset binding tetramer ± SEM", "setting": "[4]; C57BL/6, Bone marrow, Immature", "result": "0.30 ± 0.04", "unit": "%"},
      {"measurement": "% of subset binding tetramer ± SEM", "setting": "[4]; C57BL/6, Bone marrow, MF", "result": "0.15 ± 0.06", "unit": "%"},
      {"measurement": "% of subset binding tetramer ± SEM", "setting": "[4]; C57BL/6, Bone marrow, Pro/pre", "result": "0.05 ± 0.01", "unit": "%"},
      {"measurement": "% of subset binding tetramer ± SEM", "setting": "[4]; C57BL/6, Bone marrow, T1", "result": "0.62 ± 0.10^d %"},
      {"measurement": "% of subset binding tetramer ± SEM", "setting": "[4]; C57BL/6, Bone marrow, T2", "result": "0.54 ± 0.09^d %"},
      {"measurement": "% of subset binding tetramer ± SEM", "setting": "[4]; C57BL/6, Peritoneum, B1a", "result": "0.52 ± 0.08", "unit": "%"},
      {"measurement": "% of subset binding tetramer ± SEM", "setting": "[4]; C57BL/6, Peritoneum, B1b", "result": "0.50 ± 0.13", "unit": "%"},
      {"measurement": "% of subset binding tetramer ± SEM", "setting": "[4]; C57BL/6, Peritoneum, B2", "result": "0.32 ± 0.09", "unit": "%"},
      {"measurement": "% of subset binding tetramer ± SEM", "setting": "[4]; C57BL/6, Spleen, MF", "result": "0.16 ± 0.02", "unit": "%"},
      {"measurement": "% of subset binding tetramer ± SEM", "setting": "[4]; C57BL/6, Spleen, MZ", "result": "0.25 ± 0.04", "unit": "%"},
      {"measurement": "% of subset binding tetramer ± SEM", "setting": "[4]; C57BL/6, Spleen, T1", "result": "0.24 ± 0.06", "unit": "%"},
      {"measurement": "% of subset binding tetramer ± SEM", "setting": "[4]; C57BL/6, Spleen, T2", "result": "0.21 ± 0.07", "unit": "%"},
      {"measurement": "fraction of total naïve splenic B cell repertoire binding tetramer", "setting": "[5]", "result": "< 0.3", "unit": "%"},
      {"measurement": "fraction of total naïve splenic B cell repertoire binding tetramer", "setting": "[6]", "result": "> 5", "unit": "%"},
      {"measurement": "tetramer binding to splenic B cells", "setting": "[7]", "result": "completely loses gp41 2F5 MPER binding"},
      {"measurement": "tetramer binding to splenic B cells", "setting": "[8]", "result": "restores gp41 2F5 MPER binding"}
    ]}
  ]
}
